Measured values taken from patent US11708500B2, “Solvent compounds for use as coalescents” (TBF ENVIRONMENTAL TECHNOLOGY INC., priority 2017, dated 2023).
Like-named read-outs stand apart in the source and are kept apart here.

Tests used:
[1] = XTR5 vs Texanol coating in EPS 2708 acrylic emulsion polymer; conditions: EPS 2708 coating
Source text: (§1) Bis(1-butoxypropan-2-yl) carbonate (TreviSol, XTR5) was used as a direct replacement for other typical coalescents, such as, Texanol™, as follows.

[2] = XTR5 vs Texanol paint in Raycryl 1526 acrylic emulsion polymer; conditions: Raycryl 1526 paint
Source text: as §1

[3] = XTR5 vs Texanol coating in Raycryl 1001 acrylic emulsion polymer; conditions: Raycryl 1001 coating
Source text: as §1

[4] = Physical/chemical properties of XTR5

Structure (SMILES)	Specific Gravity [1]	VOC (Without Water) [1]	Viscosity [1]	Volume Solid % [1]	Weight Solid % [1]	Specific Gravity [2]	VOC (Without Water) [2]	Viscosity [2]	Volume Solid % [2]	Weight Solid % [2]	Specific Gravity [3]	VOC (Without Water) [3]	Viscosity [3]	Volume Solid % [3]	Weight Solid % [3]	also measured
CC(C)C(=O)OCC(C)(C)C(O)C(C)C (centres unmarked) [Texanol, 2-methyl-, 3-hydroxy-2,2,4-trimethylpentyl ester, reference compound]	1.33 g/cm3	103.3 g/L	95 KU	41.0%	54.5%	1.25 g/cm3	95.0 g/L	90 KU	40.91%	51.91%	1.32 g/cm3	54.6 g/L	95 KU	41.1%	54.6%	–
CCCCOCC(C)OC(=O)OC(C)COCCCC (centres unmarked) [XTR5, bis(1-butoxypropan-2-yl) carbonate]	1.33 g/cm3	59.6 g/L	95 KU	41.0%	54.5%	1.25 g/cm3	45.0 g/L	90 KU	40.91%	51.91%	1.32 g/cm3	1.5 g/L	95 KU	41.1%	54.6%	Clarity [4]: Clear; Colour (Alpha, max) [4]: 10; Density [4]: (7.94 lb/gal); Evaporation Rate [4]: Slow and Close to Texanol; Partial Coefficient (Range) [4]: 0.7-2.0; Texanol Solubility [4]: Soluble; VOC [4]: 0 g/L; Volatility (%) [4]: 100%; Water Solubility [4]: Not Soluble; Specific Gravity ([4]; @15.5°): 0.956; Density ([4]; @ 20° C.): 0.951 g/mL; Solubility in H2O ([4]; @ 25° C.): Insoluble; Vapour Pressure ([4]; @ 25° C.): 0.005 mm Hg; Viscosity ([4]; @ 25° C.): 0.58 cP; Vapour Density (mm Hg Air = 1) ([4]; Air = 1): 0.95; TGA Weight Loss ([4]; Ambient 115-240° C.): 97.94%; Evaporation Rate (n-Butyl Acetate = 1) ([4]; n-Butyl Acetate = 1): 0.0004
